Assay results taken from patent US12129237B2, “Substituted diaminocarboxamide and diaminocarbonitrile pyrimidines, compositions thereof, and methods of treatment therewith” (SIGNAL PHARMACEUTICALS, LLC, priority 2011, dated 2024).
pIC50: −log10 of the molar value.

Biological target: T1, JNK1 (Homo sapiens, UniProt P45983)
T1 construct: purchased Carna Biosciences
Assay: JNK1 biochemical assays (one or more of: time resolved fluorescence, Z'-LYTE Cascade, radioactive)
Conditions: Table 2; JNK1 IC50 activity level; read-out: Act. Level

T1 sequence (P45983 whole entry): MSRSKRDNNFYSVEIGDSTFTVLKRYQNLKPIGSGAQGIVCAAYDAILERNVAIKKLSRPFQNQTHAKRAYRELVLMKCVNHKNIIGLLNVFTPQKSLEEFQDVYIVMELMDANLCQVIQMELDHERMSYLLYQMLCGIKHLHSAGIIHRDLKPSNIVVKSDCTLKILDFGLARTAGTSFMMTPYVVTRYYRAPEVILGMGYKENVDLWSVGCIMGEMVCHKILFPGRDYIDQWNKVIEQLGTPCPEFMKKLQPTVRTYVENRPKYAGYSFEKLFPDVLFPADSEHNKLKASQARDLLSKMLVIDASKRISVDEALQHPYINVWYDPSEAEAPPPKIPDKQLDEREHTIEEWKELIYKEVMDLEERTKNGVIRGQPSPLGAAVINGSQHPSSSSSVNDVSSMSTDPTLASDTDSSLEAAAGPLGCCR

pIC50 | Compound
> 6.70 | NC(=O)c1cnc(NC2CCOCC2)nc1Nc1ccccc1 [Example B-11, 4-(phenylamino)-2-(tetrahydro-2H-pyran-4-ylamino)pyrimidine-5-carboxamide]
> 6.70 | CNC(=O)[C@H]1CC[C@H](Nc2ncc(C(N)=O)c(Nc3ccccc3)n2)CC1 [Example B-8, 2-((1r,4r)-4-(methylcarbamoyl)cyclohexylamino)-4-(phenylamino)pyrimidine-5-carboxamide]

Same assay, conditions: Table 3; JNK1 IC50 activity level; read-out: Act. Level

pIC50 | Compound
6.10 to 6.70 | CO[C@H]1CC[C@H](Nc2ncc(C#N)c(N[C@H]3CC[C@@H](O)CC3)n2)CC1 [Example C-12, 4-((1s,4s)-4-hydroxycyclohexylamino)-2-((1r,4r)-4-methoxycyclohexylamino) pyrimidine-5-carbonitrile]

Same assay, conditions: one or more of the JNK1 biochemical assays; read-out: Act. Level (JNK1 IC50 activity level)

Compound | pIC50
CC(C)(C)Nc1nc(N[C@H]2CCC[C@H](O)C2)ncc1C(N)=O [Example 305, 4-(tert-butylamino)-2-((1S,3S)-3-hydroxycyclohexylamino)pyrimidine-5-carboxamide] | > 6.70
CO[C@H]1CC[C@H](Nc2ncc(C(N)=O)c(N[C@H]3C[C@H](C)C3)n2)CC1 [Example 336, 2-((1r,4r)-4-methoxycyclohexylamino)-4-((1r,3r)-3-methylcyclobutylamino)pyrimidine-5-carboxamide] | > 6.70
NC(=O)c1cnc(N[C@H]2CC[C@H](O)CC2)nc1NC1COC1 [Example 235, 2-((1r,4r)-4-hydroxycyclohexylamino)-4-(oxetan-3-ylamino)pyrimidine-5-carboxamide] | > 6.70
CC(C)(Nc1nc(NC23CCC(O)(CC2)C3)ncc1C(N)=O)C1CC1 [Example 445, 4-(2-cyclopropylpropan-2-ylamino)-2-(4-hydroxybicyclo[2.2.1]heptan-1-ylamino)pyrimidine-5-carboxamide] | > 6.70

The next lines start with the values.

pIC50 | Compound
> 6.70 | C[C@@H](Nc1nc(NC23CCC(O)(CC2)C3)ncc1C(N)=O)C1CC1 [Example 450, (R)-4-(1-cyclopropylethylamino)-2-(4-hydroxybicyclo[2.2.1]heptan-1-ylamino)pyrimidine-5-carboxamide]
> 6.70 | CC(C)(C)Nc1nc(N[C@@H]2CCC[C@](C)(O)C2)ncc1C(N)=O [Example 380, 4-(tert-butylamino)-2-((1R,3S)-3-hydroxy-3-methylcyclohexylamino)pyrimidine-5-carboxamide]

Same assay, conditions: tested in one or more of the JNK1 biochemical assays; read-out: Act. Level (JNK1 biochemical assay IC50 activity level)

Compound | pIC50
CC(C)(C)Nc1ncc(C(N)=O)c(N[C@@H]2CCCC[C@H](O)C2)n1 [Example A-182, 2-(tert-butylamino)-4-((1R,3S)-3-hydroxycycloheptylamino)pyrimidine-5-carboxamide] | > 6.70
NC(=O)c1cnc(N[C@H]2CC[C@H](OCCF)CC2)nc1N[C@H]1CCC[C@@H]1O [Example A-75, 2-((1r,4S)-4-(2-fluoroethoxy)cyclohexylamino)-4-((1S,2S)-2-hydroxycyclopentylamino)pyrimidine-5-carboxamide] | > 6.70
CO[C@H]1CC[C@H](Nc2ncc(C(N)=O)c(N[C@@H]3CC[C@H](O)C3)n2)CC1 [Example A-46, 4-((1R,3S)-3-hydroxycyclopentylamino)-2-((1r,4R)-4-methoxycyclohexylamino)pyrimidine-5-carboxamide] | > 6.70

More lines, now with the values ahead:

pIC50 | Compound
> 6.70 | NC[C@H]1CC[C@@H](Nc2nc(NC3CCOCC3)ncc2C(N)=O)CC1 [Example A-108, 4-((1s,4s)-4-(aminomethyl)cyclohexylamino)-2-(tetrahydro-2H-pyran-4-ylamino)pyrimidine-5-carboxamide]
> 6.70 | NC(=O)c1cnc(N[C@H]2CC[C@H](OCC(F)(F)F)CC2)nc1NC1CCC1 [Example A-174, 4-(cyclobutylamino)-2-((1r,4r)-4-(2,2,2-trifluoroethoxy)cyclohexylamino)pyrimidine-5-carboxamide]
> 6.70 | C[C@]1(O)CCC[C@@H](Nc2nc(NC3CCC(F)(F)CC3)ncc2C(N)=O)C1 [Example A-187, 2-(4,4-difluorocyclohexylamino)-4-((1R,3S)-3-hydroxy-3-methylcyclohexylamino)pyrimidine-5-carboxamide]
